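The compound was tested at five concentrations on cells cultured in 96-well plates, with a 48-hour exposure period. Abbreviation: GI50, concentration required for 50% inhibition of growth.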 Activity calls are given as the source filed them. Cut-off read from the data, not from the text of the source: active = GI50 up to about 1.1 µM and inactive = higher. Square brackets hold non-standard residues; d marks the D form. Peptide text beside a SMILES is read from it. * marks the point of attachment. Bn2Val = CC(C)[C@@H](C(=O)*)N(Cc1ccccc1)Cc1ccccc1; NH(3,4-diMeO-benzyl) = COc1ccc(CN*)cc1OC; NMeV = CN[C@H](C(=O)O)C(C)C; dNMeA = CN[C@H](C)C(=O)O

Test systems include SW-620; HOP-92; NCI-H460; SN12C; SF-539; HCT-15; NCI-H226; SK-MEL-28; HOP-62; SK-MEL-5; Hs-578T; TK-10; EKVX; MDA-N; OVCAR-4; IGROV-1; RXF 393; SF-268; U-251; NCI/ADR-RES.
Common to all, as to test: NCI anticancer screen, dose series, 48 h

Regarding `COC(=O)C(/C(=N/NC(=O)c1ccncc1)C(=O)Nc1ccccc1OC)c1nc2ccc(Cl)cc2nc1O` (stereo not given), the GI50 in the test with SW-620 was > 100 µM (inactive); with HOP-92 it was > 100 µM (inactive); in the test with NCI-H460 it was > 100 µM (inactive); in the test with SN12C, > 100 µM (inactive); with SF-539, > 100 µM (inactive); in the test on HCT-15, 63.5 µM. For the same compound, the GI50 with NCI-H226 is 22.2 µM (inactive); in the test on SK-MEL-28, > 100 µM (inactive); with HOP-62 it was > 100 µM (inactive); in the test with SK-MEL-5, > 100 µM (inactive); with Hs-578T, > 100 µM (inactive); with TK-10, > 100 µM (inactive). Besides, the GI50 with EKVX is 77.8 µM (inactive); with MDA-N, 47.2 µM (inactive); in the test on OVCAR-4 it was 55 µM (inactive); with IGROV-1 it was 11 µM (inactive); in the test with RXF 393, > 100 µM (inactive); in the test on SF-268, > 100 µM (inactive). In addition, the GI50 with U-251 and in the test on NCI/ADR-RES was > 100 µM (inactive) each time.
Take `CC1(C)COC2=C(C1)C(=O)c1ccccc1C2=O`: the GI50 in the test on SW-620 was 1.69 µM (inactive); in the test with HOP-92, 2.3 µM (inactive); with NCI-H460, 1.91 µM (inactive); with SN12C, 1.36 µM (inactive); in the test on SF-539 it was 1.54 µM (inactive); in the test with HCT-15, 0.701 µM. The GI50 is 2.24 µM (inactive) in the test with NCI-H226; 1.64 µM (inactive) with SK-MEL-28; 1.99 µM (inactive) in the test on HOP-62; 0.71 µM (active) in the test on SK-MEL-5; 2.88 µM (inactive) in the test on Hs-578T; 1.7 µM (inactive) with TK-10. The GI50 with EKVX was 1.9 µM (inactive); in the test with MDA-N, 0.182 µM (active); in the test with OVCAR-4 it was 1.53 µM (inactive); in the test with IGROV-1, 1.65 µM (inactive); with RXF 393 it was 2.02 µM (inactive); in the test on SF-268 it was 1.65 µM (inactive). Moreover, the GI50 is 1.43 µM (inactive) in the test with U-251 and 0.452 µM (active) in the test with NCI/ADR-RES.
In the case of `COc1ccc(CNC(=O)[C@@H](C)N(C)C(=O)[C@@H]2CCCN2C(=O)[C@H](C(C)C)N(C)C(=O)[C@@H](NC(=O)[C@H](C(C)C)N(Cc2ccccc2)Cc2ccccc2)C(C)C)cc1OC` (Bn2Val-V[NMeV]P[dNMeA]-{NH(3,4-diMeO-benzyl)}), the GI50 with SW-620 is 10.1 µM (inactive); in the test on HOP-92, 7.4 µM (inactive); in the test on NCI-H460, 9.73 µM (inactive); in the test with SN12C it was 8.13 µM (inactive); in the test on SF-539, 7.89 µM (inactive); with HCT-15, 7.18 µM. For the same compound, the GI50 in the test with NCI-H226 was 6.58 µM (inactive); with SK-MEL-28 it was 8.34 µM (inactive); with HOP-62, 8 µM (inactive); in the test on SK-MEL-5 it was 5.87 µM (inactive); with Hs-578T it was 1.36 µM (inactive); in the test on TK-10, 11.7 µM (inactive). Besides, the GI50 with EKVX is 6.24 µM (inactive); in the test on MDA-N, 9.06 µM (inactive); with OVCAR-4, 12.6 µM (inactive); with IGROV-1 it was 5.14 µM (inactive); in the test with RXF 393, 5.61 µM (inactive); in the test on SF-268, 6.41 µM (inactive). Also, the GI50 with U-251 was 7.6 µM (inactive); in the test on NCI/ADR-RES, 7.19 µM (inactive).
With `C[C@@H]1CC[C@@]2(C)[C@H](C)/C(=C\COC(=O)/C=C/c3ccc(O)c(O)c3)CC[C@@]12C` [NAVICULYL CAFFEATE], the GI50 in the test on SW-620 is 4.95 µM (inactive); in the test on HOP-92, 14.1 µM (inactive); in the test on NCI-H460 it was 3.57 µM (inactive); in the test with SN12C, 4.55 µM (inactive); with SF-539, 4.83 µM (inactive); in the test on HCT-15, 4.1 µM. The GI50 in the test with NCI-H226 was 6.05 µM (inactive); in the test with SK-MEL-28 it was 10.8 µM (inactive); in the test with HOP-62, 13.1 µM (inactive); in the test with SK-MEL-5 it was 5.15 µM (inactive); in the test on Hs-578T, 13.2 µM (inactive); in the test with TK-10, 3.5 µM (inactive). In addition, the GI50 is 15 µM (inactive) in the test with EKVX; 3.42 µM (inactive) in the test with MDA-N; 4.65 µM (inactive) with OVCAR-4; 7.31 µM (inactive) in the test with IGROV-1; 15.7 µM (inactive) with RXF 393; 9.84 µM (inactive) with SF-268. For the same compound, the GI50 in the test on U-251 is 5.35 µM (inactive); in the test with NCI/ADR-RES, 7.8 µM (inactive).

The values above are taken from ChEMBL document CHEMBL1201862, “PubChem BioAssay data set” (2004).
